In PMC3694096, “Development of Novel In Vivo Chemical Probes to Address CNS Protein Kinase Involvement in Synaptic Dysfunction” (PLoS ONE, 2013):
Like-named read-outs stand apart in the source and are kept apart here.

Experiments:
ACK1 = biological target: T1, ACK1 (Homo sapiens, UniProt Q07912); assay: Kinome profiler screen; type: biochemical; settings: at 20,000 nM inhibitor; kinase activity remaining
T1 construct: purchased Millipore KinaseProfiler

Arg = biological target: T2, Arg (Homo sapiens, UniProt P42684); assay: Kinome profiler screen; type: biochemical; settings: at 20,000 nM inhibitor; kinase activity remaining
T2 construct: purchased Millipore KinaseProfiler

ARK5 = biological target: T3, ARK5 (Homo sapiens, UniProt O60285); assay: Kinome profiler screen; type: biochemical; settings: at 20,000 nM inhibitor; kinase activity remaining
T3 construct: purchased Millipore KinaseProfiler

Aurora-B = biological target: T4, Aurora-B (Homo sapiens, UniProt Q96GD4); assay: Kinome profiler screen; type: biochemical; settings: at 20,000 nM inhibitor; kinase activity remaining
T4 construct: purchased Millipore KinaseProfiler

Blk(m) = biological target: T5, Blk(m) (Mus musculus, UniProt P16277); assay: Kinome profiler screen; type: biochemical; settings: at 20,000 nM inhibitor; kinase activity remaining
T5 construct: purchased Millipore KinaseProfiler

Bmx = biological target: T6, Bmx (Homo sapiens, UniProt P51813); assay: Kinome profiler screen; type: biochemical; settings: at 20,000 nM inhibitor; kinase activity remaining
T6 construct: purchased Millipore KinaseProfiler

BTK(R28H) = biological target: T7, BTK(R28H) (Homo sapiens, UniProt Q06187, R28H); assay: Kinome profiler screen; type: biochemical; settings: at 20,000 nM inhibitor; kinase activity remaining
T7 construct: purchased Millipore KinaseProfiler

CaMKIV = biological target: T8, CaMKIV (Homo sapiens, UniProt Q16566); assay: Kinome profiler screen; type: biochemical; settings: at 20,000 nM inhibitor; kinase activity remaining
T8 construct: purchased Millipore KinaseProfiler

CDK3/cyclinE = biological target: T9, CDK3/cyclinE (Homo sapiens, UniProt Q00526); assay: Kinome profiler screen; type: biochemical; settings: at 20,000 nM inhibitor; kinase activity remaining
T9 construct: purchased Millipore KinaseProfiler

CLK2 = biological target: T10, CLK2 (Homo sapiens, UniProt P49760); assay: Kinome profiler screen; type: biochemical; settings: at 20,000 nM inhibitor; kinase activity remaining
T10 construct: purchased Millipore KinaseProfiler

cKit(D816V) = biological target: T11, cKit(D816V) (Homo sapiens, UniProt P10721, D816V); assay: Kinome profiler screen; type: biochemical; settings: at 20,000 nM inhibitor; kinase activity remaining
T11 construct: purchased Millipore KinaseProfiler
T11 sequence (P10721 26-976 D816V): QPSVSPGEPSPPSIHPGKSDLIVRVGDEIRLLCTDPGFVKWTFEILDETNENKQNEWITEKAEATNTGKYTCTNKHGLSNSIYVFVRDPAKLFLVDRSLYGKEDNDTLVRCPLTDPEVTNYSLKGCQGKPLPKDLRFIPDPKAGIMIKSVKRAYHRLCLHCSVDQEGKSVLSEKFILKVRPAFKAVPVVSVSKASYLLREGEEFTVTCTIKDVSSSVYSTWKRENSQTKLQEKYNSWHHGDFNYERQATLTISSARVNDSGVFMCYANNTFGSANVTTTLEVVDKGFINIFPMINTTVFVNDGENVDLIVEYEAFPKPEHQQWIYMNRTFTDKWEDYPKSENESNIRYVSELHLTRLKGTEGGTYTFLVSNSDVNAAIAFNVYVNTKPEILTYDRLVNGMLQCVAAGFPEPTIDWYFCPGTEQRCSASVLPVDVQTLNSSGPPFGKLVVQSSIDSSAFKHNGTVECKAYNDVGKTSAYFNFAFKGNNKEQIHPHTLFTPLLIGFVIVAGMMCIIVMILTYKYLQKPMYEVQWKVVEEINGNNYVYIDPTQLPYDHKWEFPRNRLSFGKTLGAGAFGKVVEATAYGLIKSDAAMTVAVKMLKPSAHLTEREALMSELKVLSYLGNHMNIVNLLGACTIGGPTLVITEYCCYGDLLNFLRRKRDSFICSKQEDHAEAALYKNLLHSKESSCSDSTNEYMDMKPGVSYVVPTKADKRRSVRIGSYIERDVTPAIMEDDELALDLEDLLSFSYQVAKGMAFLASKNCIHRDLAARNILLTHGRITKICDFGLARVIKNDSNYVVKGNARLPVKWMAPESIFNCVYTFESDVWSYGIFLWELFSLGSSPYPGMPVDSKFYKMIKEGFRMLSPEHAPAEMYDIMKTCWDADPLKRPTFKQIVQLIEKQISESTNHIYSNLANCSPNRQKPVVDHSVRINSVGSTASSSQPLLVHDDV

cKit(V560G) = biological target: T12, cKit(V560G) (Homo sapiens, UniProt P10721, V560G); assay: Kinome profiler screen; type: biochemical; settings: at 20,000 nM inhibitor; kinase activity remaining
T12 construct: purchased Millipore KinaseProfiler
T12 sequence (P10721 26-976 V560G): as the sequence (P10721 26-976 D816V) above, with V535G, V791D counted along it

FGFR1 = biological target: T13, FGFR1 (Homo sapiens, UniProt P11362); assay: Kinome profiler screen; type: biochemical; settings: at 20,000 nM inhibitor; kinase activity remaining
T13 construct: purchased Millipore KinaseProfiler

Flt1 = biological target: T14, Flt1 (Homo sapiens, UniProt P17948); assay: Kinome profiler screen; type: biochemical; settings: for activity at 20 µM: at 20,000 nM inhibitor, kinase activity remaining
T14 construct: purchased Millipore
T14 sequence (P17948 27-1338): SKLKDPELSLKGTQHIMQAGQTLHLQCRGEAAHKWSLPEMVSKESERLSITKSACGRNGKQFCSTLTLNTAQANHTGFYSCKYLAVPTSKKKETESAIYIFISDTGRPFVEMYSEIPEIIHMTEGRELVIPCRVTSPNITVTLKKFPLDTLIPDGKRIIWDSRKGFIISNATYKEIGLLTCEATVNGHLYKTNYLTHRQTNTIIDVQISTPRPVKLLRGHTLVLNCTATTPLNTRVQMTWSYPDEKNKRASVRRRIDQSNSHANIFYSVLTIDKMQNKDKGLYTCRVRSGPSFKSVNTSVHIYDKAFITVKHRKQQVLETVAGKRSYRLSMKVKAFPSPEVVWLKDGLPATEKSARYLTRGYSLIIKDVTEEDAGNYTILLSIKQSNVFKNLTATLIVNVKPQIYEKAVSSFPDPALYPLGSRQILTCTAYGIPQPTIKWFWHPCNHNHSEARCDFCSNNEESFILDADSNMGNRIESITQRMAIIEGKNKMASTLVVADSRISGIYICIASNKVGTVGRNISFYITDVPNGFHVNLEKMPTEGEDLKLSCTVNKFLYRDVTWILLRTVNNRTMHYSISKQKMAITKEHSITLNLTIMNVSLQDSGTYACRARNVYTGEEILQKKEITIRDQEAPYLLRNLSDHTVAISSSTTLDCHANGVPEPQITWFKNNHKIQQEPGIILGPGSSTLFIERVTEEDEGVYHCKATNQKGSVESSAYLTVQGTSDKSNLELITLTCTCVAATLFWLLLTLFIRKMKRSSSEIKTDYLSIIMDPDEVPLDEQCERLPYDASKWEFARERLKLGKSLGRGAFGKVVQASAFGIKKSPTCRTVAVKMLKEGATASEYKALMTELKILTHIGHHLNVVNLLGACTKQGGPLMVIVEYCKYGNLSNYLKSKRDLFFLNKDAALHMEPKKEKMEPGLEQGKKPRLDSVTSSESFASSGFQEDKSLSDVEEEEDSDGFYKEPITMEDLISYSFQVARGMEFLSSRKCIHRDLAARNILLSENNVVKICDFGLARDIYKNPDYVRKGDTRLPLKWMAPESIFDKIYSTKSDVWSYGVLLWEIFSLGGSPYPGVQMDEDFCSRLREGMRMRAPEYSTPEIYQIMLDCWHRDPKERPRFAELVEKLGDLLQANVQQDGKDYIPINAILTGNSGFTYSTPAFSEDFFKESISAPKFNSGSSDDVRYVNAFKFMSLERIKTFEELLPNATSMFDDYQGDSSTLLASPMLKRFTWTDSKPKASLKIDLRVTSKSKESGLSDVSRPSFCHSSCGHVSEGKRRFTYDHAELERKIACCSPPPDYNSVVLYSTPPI

Flt3(D835Y) = biological target: T15, Flt3(D835Y) (Homo sapiens, UniProt P36888, D835Y); assay: Kinome profiler screen; type: biochemical; settings: at 20,000 nM inhibitor; kinase activity remaining
T15 construct: purchased Millipore KinaseProfiler

GSK3β = biological target: T16, GSK3β (Homo sapiens, UniProt P49841); assay: Kinome profiler screen; type: biochemical; settings: at 20,000 nM inhibitor; kinase activity remaining
T16 construct: purchased Millipore KinaseProfiler

IR, activated = biological target: T17, IR, activated (Homo sapiens, UniProt P06213); assay: Kinome profiler screen; type: biochemical; settings: at 20,000 nM inhibitor; kinase activity remaining
T17 construct: purchased Millipore KinaseProfiler

LOK = biological target: T18, LOK (Homo sapiens, UniProt O94804); assay: Kinome profiler screen; type: biochemical; settings: for activity at 20 µM: at 20,000 nM inhibitor, kinase activity remaining
T18 construct: purchased Millipore
T18 sequence (O94804 whole entry): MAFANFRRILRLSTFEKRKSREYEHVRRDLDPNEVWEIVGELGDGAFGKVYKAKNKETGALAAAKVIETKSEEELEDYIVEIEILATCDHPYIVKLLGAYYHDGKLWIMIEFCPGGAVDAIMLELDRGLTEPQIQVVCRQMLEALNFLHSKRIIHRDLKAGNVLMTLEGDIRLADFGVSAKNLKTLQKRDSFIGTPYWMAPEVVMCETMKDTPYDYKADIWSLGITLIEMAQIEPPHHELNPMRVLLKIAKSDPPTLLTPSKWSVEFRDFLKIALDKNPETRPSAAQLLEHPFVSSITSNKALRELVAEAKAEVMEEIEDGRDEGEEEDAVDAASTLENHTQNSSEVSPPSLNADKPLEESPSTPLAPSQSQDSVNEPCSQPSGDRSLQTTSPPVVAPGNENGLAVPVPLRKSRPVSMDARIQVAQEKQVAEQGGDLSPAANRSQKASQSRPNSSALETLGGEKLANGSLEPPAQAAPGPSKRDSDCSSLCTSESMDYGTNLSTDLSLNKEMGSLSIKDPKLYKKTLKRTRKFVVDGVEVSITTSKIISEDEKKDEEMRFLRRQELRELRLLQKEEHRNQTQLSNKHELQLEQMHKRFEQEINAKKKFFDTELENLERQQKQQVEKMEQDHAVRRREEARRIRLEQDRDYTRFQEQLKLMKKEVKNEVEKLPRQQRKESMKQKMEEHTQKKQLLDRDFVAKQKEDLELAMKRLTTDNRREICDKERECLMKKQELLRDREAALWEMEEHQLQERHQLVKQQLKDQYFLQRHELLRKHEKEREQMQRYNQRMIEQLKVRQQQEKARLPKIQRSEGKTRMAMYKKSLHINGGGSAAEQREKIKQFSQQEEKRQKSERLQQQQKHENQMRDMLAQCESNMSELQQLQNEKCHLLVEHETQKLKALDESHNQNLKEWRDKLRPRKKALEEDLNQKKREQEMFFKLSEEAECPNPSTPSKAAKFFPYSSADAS

Lyn(m) = biological target: T19, Lyn(m) (Mus musculus, UniProt P25911); assay: Kinome profiler screen; type: biochemical; settings: at 20,000 nM inhibitor; kinase activity remaining
T19 construct: purchased Millipore KinaseProfiler

MAPKAP-K2 = biological target: T20, MAPKAP-K2 (Homo sapiens, UniProt P49137); assay: Kinome profiler screen; type: biochemical; settings: at 20,000 nM inhibitor; kinase activity remaining
T20 construct: purchased Millipore KinaseProfiler

Met(Y1248C) = biological target: T21, Met(Y1248C) (Homo sapiens, UniProt P08581, Y1230C); assay: Kinome profiler screen; type: biochemical; settings: at 20,000 nM inhibitor; kinase activity remaining
T21 construct: purchased Millipore KinaseProfiler

PI3 Kinase (p110β/p85α) = biological target: T22, PI3 Kinase (p110β/p85α) (Homo sapiens, UniProt P42338); assay: Kinome profiler screen; type: biochemical; settings: at 20,000 nM inhibitor; kinase activity remaining
T22 construct: purchased Millipore KinaseProfiler

PI3 Kinase (p110δ/p85α) = biological target: T23, PI3 Kinase (p110δ/p85α) (Homo sapiens, UniProt O00329); assay: Kinome profiler screen; type: biochemical; settings: at 20,000 nM inhibitor; kinase activity remaining
T23 construct: purchased Millipore KinaseProfiler

[1] = biological target: T24, PI3 Kinase (p110α (E542K)/p85α) (Homo sapiens, UniProt P42336, E542K); assay: Kinome profiler screen; type: biochemical; settings: at 20,000 nM inhibitor; kinase activity remaining
T24 construct: purchased Millipore KinaseProfiler

[2] = biological target: T25, PI3 Kinase (p110 β/p85β)(m) (Mus musculus, UniProt Q8BTI9); assay: Kinome profiler screen; type: biochemical; settings: at 20,000 nM inhibitor; kinase activity remaining
T25 construct: purchased Millipore KinaseProfiler

PKCμ = biological target: T26, PKCμ (Homo sapiens, UniProt Q15139); assay: Kinome profiler screen; type: biochemical; settings: at 20,000 nM inhibitor; kinase activity remaining
T26 construct: purchased Millipore KinaseProfiler

PKD2 = biological target: T27, PKD2 (Homo sapiens, UniProt Q9BZL6); assay: Kinome profiler screen; type: biochemical; settings: at 20,000 nM inhibitor; kinase activity remaining
T27 construct: purchased Millipore KinaseProfiler

PRK2 = biological target: T28, PRK2 (Homo sapiens, UniProt Q16513); assay: Kinome profiler screen; type: biochemical; settings: at 20,000 nM inhibitor; kinase activity remaining
T28 construct: purchased Millipore KinaseProfiler

PrKX = biological target: T29, PrKX (Homo sapiens, UniProt P51817); assay: Kinome profiler screen; type: biochemical; settings: at 20,000 nM inhibitor; kinase activity remaining
T29 construct: purchased Millipore KinaseProfiler

PTK5 = biological target: T30, PTK5 (Homo sapiens, UniProt P42685); assay: Kinome profiler screen; type: biochemical; settings: at 20,000 nM inhibitor; kinase activity remaining
T30 construct: purchased Millipore KinaseProfiler

RIPK2 = biological target: T31, RIPK2 (Homo sapiens, UniProt O43353); assay: Kinome profiler screen; type: biochemical; settings: at 20,000 nM inhibitor; kinase activity remaining
T31 construct: purchased Millipore KinaseProfiler

ROCK-II = biological target: T32, ROCK-II (Homo sapiens, UniProt O75116); assay: Kinome profiler screen; type: biochemical; settings: at 20,000 nM inhibitor; kinase activity remaining
T32 construct: purchased Millipore KinaseProfiler

ROCK-II(r) = biological target: T33, ROCK-II(r) (Rattus norvegicus, UniProt Q62868); assay: Kinome profiler screen; type: biochemical; settings: at 20,000 nM inhibitor; kinase activity remaining
T33 construct: purchased Millipore KinaseProfiler
T33 sequence (Q62868 2-543 limits assumed): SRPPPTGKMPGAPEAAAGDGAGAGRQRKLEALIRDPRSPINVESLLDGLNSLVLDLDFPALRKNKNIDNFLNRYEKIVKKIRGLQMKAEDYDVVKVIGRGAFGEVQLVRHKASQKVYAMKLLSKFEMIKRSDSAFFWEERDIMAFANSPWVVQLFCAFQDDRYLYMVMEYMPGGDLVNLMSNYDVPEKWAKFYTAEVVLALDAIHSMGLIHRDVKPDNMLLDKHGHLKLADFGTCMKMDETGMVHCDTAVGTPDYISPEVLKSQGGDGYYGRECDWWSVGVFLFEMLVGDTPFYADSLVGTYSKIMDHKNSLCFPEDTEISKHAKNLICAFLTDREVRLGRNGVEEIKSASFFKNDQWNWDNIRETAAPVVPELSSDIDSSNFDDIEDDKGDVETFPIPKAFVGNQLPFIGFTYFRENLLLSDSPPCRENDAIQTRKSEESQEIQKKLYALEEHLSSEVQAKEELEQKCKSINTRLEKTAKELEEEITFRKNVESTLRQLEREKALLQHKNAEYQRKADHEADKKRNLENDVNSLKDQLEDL

Rsk2 = biological target: T34, Rsk2 (Homo sapiens, UniProt P51812); assay: Kinome profiler screen; type: biochemical; settings: at 20,000 nM inhibitor; kinase activity remaining
T34 construct: purchased Millipore KinaseProfiler

Rsk4 = biological target: T35, Rsk4 (Homo sapiens, UniProt Q9UK32); assay: Kinome profiler screen; type: biochemical; settings: at 20,000 nM inhibitor; kinase activity remaining
T35 construct: purchased Millipore KinaseProfiler

Src(1-530) = biological target: T36, Src(1-530) (Homo sapiens, UniProt P12931); assay: Kinome profiler screen; type: biochemical; settings: at 20,000 nM inhibitor; kinase activity remaining
T36 construct: purchased Millipore KinaseProfiler

SRPK1 = biological target: T37, SRPK1 (Homo sapiens, UniProt Q96SB4); assay: Kinome profiler screen; type: biochemical
T37 construct: purchased Millipore KinaseProfiler

Txk = biological target: T38, Txk (Homo sapiens, UniProt P42681); assay: Kinome profiler screen; type: biochemical; settings: at 20,000 nM inhibitor; kinase activity remaining
T38 construct: purchased Millipore KinaseProfiler

WNK2 = biological target: T39, WNK2 (Homo sapiens, UniProt Q9Y3S1); assay: Kinome profiler screen; type: biochemical; settings: at 20,000 nM inhibitor; kinase activity remaining
T39 construct: purchased Millipore KinaseProfiler

Yes = biological target: T40, Yes (Homo sapiens, UniProt P07947); assay: Kinome profiler screen; type: biochemical; settings: at 20,000 nM inhibitor; kinase activity remaining
T40 construct: purchased Millipore KinaseProfiler

[3] = test system: IL-1β levels in brain cortex; assay: LPS-induced brain IL-1β in vivo; design: species or system C57Bl/6 mice; settings: 20 mg/Kg oral gavage 1 hr before LPS 0.5 mg/kg i.p.; brain cortex at 6 hrs
[4] = test system: contextual and cued learning; assay: Fear conditioning, Aβ42-infused mice; type: in vivo, C57BL/6J mice; settings: for cued learning: 24 hrs after contextual learning, control test; for contextual fear memory deficit: Aβ42-infused mice

T1 sequence (Q07912 whole entry): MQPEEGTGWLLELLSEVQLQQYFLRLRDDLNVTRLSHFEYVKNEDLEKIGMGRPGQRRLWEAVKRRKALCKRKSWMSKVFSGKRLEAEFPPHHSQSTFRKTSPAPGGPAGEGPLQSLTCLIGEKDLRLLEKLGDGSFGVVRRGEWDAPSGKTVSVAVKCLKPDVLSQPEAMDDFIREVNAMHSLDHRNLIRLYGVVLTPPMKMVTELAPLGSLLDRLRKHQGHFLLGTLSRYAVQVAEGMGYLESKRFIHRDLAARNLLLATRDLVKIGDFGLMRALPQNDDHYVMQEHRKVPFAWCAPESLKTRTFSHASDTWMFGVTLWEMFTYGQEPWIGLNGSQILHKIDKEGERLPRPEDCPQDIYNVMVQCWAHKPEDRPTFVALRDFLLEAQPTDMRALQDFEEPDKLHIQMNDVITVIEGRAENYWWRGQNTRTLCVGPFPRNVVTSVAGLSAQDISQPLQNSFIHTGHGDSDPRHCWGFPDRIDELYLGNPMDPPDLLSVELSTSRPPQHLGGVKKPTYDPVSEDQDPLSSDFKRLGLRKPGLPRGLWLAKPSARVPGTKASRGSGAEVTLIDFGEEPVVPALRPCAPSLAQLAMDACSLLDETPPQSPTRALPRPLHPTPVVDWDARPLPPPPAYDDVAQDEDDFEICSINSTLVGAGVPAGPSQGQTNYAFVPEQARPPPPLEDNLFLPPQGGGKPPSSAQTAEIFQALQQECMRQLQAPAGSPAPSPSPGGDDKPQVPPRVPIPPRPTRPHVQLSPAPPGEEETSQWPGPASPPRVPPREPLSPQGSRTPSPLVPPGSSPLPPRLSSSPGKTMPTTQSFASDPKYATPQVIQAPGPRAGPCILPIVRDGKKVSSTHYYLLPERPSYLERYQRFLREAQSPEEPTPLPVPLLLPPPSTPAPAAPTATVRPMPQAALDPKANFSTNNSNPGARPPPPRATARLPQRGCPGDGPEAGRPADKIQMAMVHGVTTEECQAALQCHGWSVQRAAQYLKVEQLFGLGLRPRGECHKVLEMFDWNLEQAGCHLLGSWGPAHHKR

CN(C)c1cc(-c2ccncc2)c(-c2cccc3ccccc23)nn1 [MW181, N,N-dimethyl-6-(naphthalen-1-yl)-5-(pyridin-4-yl)pyridazin-3-amine]
activity at 20 µM (ACK1): 106%
activity at 20 µM (Arg): 84%
activity at 20 µM (ARK5): 103%
activity at 20 µM (Aurora-B): 114%
activity at 20 µM (Blk(m)): 100%
activity at 20 µM (Bmx): 108%
activity at 20 µM (BTK(R28H)): 96%
activity at 20 µM (CaMKIV): 105%
activity at 20 µM (CDK3/cyclinE): 98%
activity at 20 µM (CLK2): 98%
activity at 20 µM (cKit(D816V)): 103%
activity at 20 µM (cKit(V560G)): 71%
activity at 20 µM (FGFR1): 103%
activity at 20 µM (Flt1): 96%
activity at 20 µM (Flt3(D835Y)): 100%
activity at 20 µM (GSK3β): 92%
activity at 20 µM (IR, activated): 100%
activity at 20 µM (LOK): 84%
activity at 20 µM (Lyn(m)): 90%
activity at 20 µM (MAPKAP-K2): 103%
activity at 20 µM (Met(Y1248C)): 100%
activity at 20 µM (PI3 Kinase (p110β/p85α)): 98%
activity at 20 µM (PI3 Kinase (p110δ/p85α)): 101%
activity at 20 µM [1]: 100%
activity at 20 µM [2]: 100%
activity at 20 µM (PKCμ): 70%
activity at 20 µM (PKD2): 78%
activity at 20 µM (PRK2): 96%
activity at 20 µM (PrKX): 108%
activity at 20 µM (PTK5): 90%
activity at 20 µM (RIPK2): 84%
activity at 20 µM (ROCK-II): 108%
activity at 20 µM (ROCK-II(r)): 92%
activity at 20 µM (Rsk2): 90%
activity at 20 µM (Rsk4): 105%
activity at 20 µM (Src(1-530)): 98%
activity at 20 µM (SRPK1; at 20,000 nM inhibitor, kinase activity remaining, read-out: % Activity): 103%
activity at 20 µM (Txk): 98%
activity at 20 µM (WNK2): 92%
activity at 20 µM (Yes): 87%
LPS-induced IL-1β levels in vivo [3]: suppressed LPS-induced IL-1β levels in vivo
cued learning [4]: No difference was detected between groups
contextual fear memory deficit [4]: ameliorated the contextual fear memory deficit

CN(C)c1cc(-c2ccncc2)c(-c2ccc3ccccc3c2)nn1 [MW108, N, N-dimethyl-6-(naphthalen-2-yl)-5-(pyridin-4-yl)pyridazin-3-amine]
activity at 20 µM (ACK1): 100%
activity at 20 µM (Arg): 95%
activity at 20 µM (ARK5): 98%
activity at 20 µM (Aurora-B): 134%
activity at 20 µM (Blk(m)): 88%
activity at 20 µM (Bmx): 87%
activity at 20 µM (BTK(R28H)): 101%
activity at 20 µM (CaMKIV): 100%
activity at 20 µM (CDK3/cyclinE): 91%
activity at 20 µM (CLK2): 103%
activity at 20 µM (cKit(D816V)): 103%
activity at 20 µM (cKit(V560G)): 95%
activity at 20 µM (FGFR1): 93%
IC50 (Flt1): > 30 µM
activity at 20 µM (Flt1): 38%
activity at 20 µM (Flt3(D835Y)): 90%
activity at 20 µM (GSK3β): 97%
activity at 20 µM (IR, activated): 103%
IC50 (LOK): > 30 µM
activity at 20 µM (LOK): 48%
activity at 20 µM (Lyn(m)): 97%
activity at 20 µM (MAPKAP-K2): 103%
activity at 20 µM (Met(Y1248C)): 84%
activity at 20 µM (PI3 Kinase (p110β/p85α)): 100%
activity at 20 µM (PI3 Kinase (p110δ/p85α)): 100%
activity at 20 µM [1]: 99%
activity at 20 µM [2]: 101%
activity at 20 µM (PKCμ): 70%
activity at 20 µM (PKD2): 78%
activity at 20 µM (PRK2): 103%
activity at 20 µM (PrKX): 109%
activity at 20 µM (PTK5): 80%
activity at 20 µM (RIPK2): 57%
activity at 20 µM (ROCK-II): 99%
activity at 20 µM (ROCK-II(r)): 97%
activity at 20 µM (Rsk2): 92%
activity at 20 µM (Rsk4): 96%
activity at 20 µM (Src(1-530)): 101%
activity at 20 µM (SRPK1): 114%
activity at 20 µM (Txk): 98%
activity at 20 µM (WNK2): 101%
activity at 20 µM (Yes): 63%
LPS-induced IL-1β levels in vivo [3]: suppressed LPS-induced IL-1β levels in vivo
cued learning [4]: No difference was detected between groups
contextual fear memory deficit [4]: ameliorated the contextual fear memory deficit
